The supplement of paper PMC10307832

Assays:
Test in all cases: relative viability (nuclei count vs DMSO), 5 days (fraction); higher = more cells survive
R406 + Foretinib = compound: COc1cc(Nc2ncc(F)c(Nc3ccc4c(n3)NC(=O)C(C)(C)O4)n2)cc(OC)c1OC [R406] + COc1cc2c(Oc3ccc(NC(=O)C4(C(=O)Nc5ccc(F)cc5)CC4)cc3F)ccnc2cc1OCCCN1CCOCC1 [Foretinib] (partner 0.25 µM)
Method in brief: (§1)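 A single step with final 0.05% Triton X-100, 1% formaldehyde and 1 ug/ml Hoechst fixed the cells and stained nuclei 5 days after treatment. Lung cancer cell lines in 1536-well plates had been treated by pin tool the day after seeding with one drug alone or a fixed anchor-drug dose plus five library-drug doses (not always all listed) in √10 steps, and nuclei were counted on 4× images. Relative viability is the ratio of nuclei in treated wells to nuclei in vehicle wells, taken as the median of duplicate plates.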

R406 + Pictilisib = compound: COc1cc(Nc2ncc(F)c(Nc3ccc4c(n3)NC(=O)C(C)(C)O4)n2)cc(OC)c1OC [R406] + CS(=O)(=O)N1CCN(Cc2cc3nc(-c4cccc5[nH]ncc45)nc(N4CCOCC4)c3s2)CC1 [Pictilisib] (partner 1 µM)
Method in brief: as §1

Daporinad + Tozasertib = compound: O=C(/C=C/c1cccnc1)NCCCCC1CCN(C(=O)c2ccccc2)CC1 [Daporinad] + Cc1cc(Nc2cc(N3CCN(C)CC3)nc(Sc3ccc(NC(=O)C4CC4)cc3)n2)n[nH]1 [Tozasertib] (partner 0.1 µM)
Method in brief: as §1

Daporinad + Olaparib = compound: O=C(/C=C/c1cccnc1)NCCCCC1CCN(C(=O)c2ccccc2)CC1 [Daporinad] + O=C(c1cc(Cc2n[nH]c(=O)c3ccccc23)ccc1F)N1CCN(C(=O)C2CC2)CC1 [Olaparib] (partner 8 µM)
Method in brief: as §1

Cell Line	relative viability (R406 + Foretinib; first compound 0.08 µM)	relative viability (R406 + Foretinib; first compound 0.253 µM)	relative viability (R406 + Foretinib; first compound 0.8 µM)	relative viability (R406 + Foretinib; first compound 2.53 µM)	relative viability (R406 + Foretinib; first compound 8 µM)	relative viability (R406 + Pictilisib; first compound 0.08 µM)	relative viability (R406 + Pictilisib; first compound 0.253 µM)	relative viability (R406 + Pictilisib; first compound 0.8 µM)	relative viability (R406 + Pictilisib; first compound 2.53 µM)	relative viability (R406 + Pictilisib; first compound 8 µM)	relative viability (Daporinad + Tozasertib; first compound 0.0005 µM)	relative viability (Daporinad + Tozasertib; first compound 0.001581 µM)	relative viability (Daporinad + Tozasertib; first compound 0.005 µM)	relative viability (Daporinad + Tozasertib; first compound 0.01581 µM)	relative viability (Daporinad + Olaparib; first compound 0.0005 µM)	relative viability (Daporinad + Olaparib; first compound 0.005 µM)	relative viability (Daporinad + Olaparib; first compound 0.01581 µM)	relative viability (Daporinad + Olaparib; first compound 0.001581 µM)
HCC-366	0.957	0.933	0.956	0.847	0.137	0.128	0.163	0.141	0.113	0.122	0.103	0.0734	0.124	0.171	0.334	0.189	0.095	–
HCC-827	0.991	1.08	1.05	0.81	0.157	0.944	0.735	1.11	0.687	0.862	0.428	0.445	0.513	0.446	0.612	0.608	0.504	0.728
HOP-62	1.03	1.28	0.967	1.26	0.808	0.643	0.846	0.863	0.467	0.488	0.379	0.432	0.332	0.353	0.258	0.188	0.15	0.287
IA-LM	1.23	1.43	0.958	1.36	1.02	0.443	0.475	0.359	0.409	0.264	–	–	–	–	0.798	0.707	0.475	0.766
LC-2-ad	0.899	1.03	0.903	0.7	0.547	0.554	0.309	0.596	0.12	0.0919	0.516	0.544	0.459	0.427	0.664	0.441	0.398	0.662
LCLC-97TM1	0.89	0.963	0.965	0.935	0.327	0.174	0.172	0.218	0.133	0.148	0.194	0.432	0.181	0.253	0.435	0.201	0.122	0.322
LCLC-103H	0.758	0.734	0.879	0.529	0.146	0.462	0.636	0.595	0.403	0.356	0.548	0.5	0.514	0.525	0.877	0.697	0.688	0.741
LK-2	1.14	1.45	1.1	0.888	0.344	0.462	0.637	0.427	0.462	0.304	0.17	0.168	0.194	0.169	0.657	0.394	0.28	0.459
LOU-NH91	0.918	0.975	0.918	0.518	0.475	0.524	0.526	0.46	0.405	0.414	0.754	0.699	0.792	0.906	0.874	0.803	0.837	0.977
LU99A	0.801	0.794	0.914	0.588	0.345	0.368	0.296	0.357	–	0.211	0.26	0.254	0.29	0.249	0.188	0.199	0.186	0.198
LXF-289	1.01	1.03	0.969	0.999	0.238	0.724	0.799	0.845	0.634	0.268	0.23	0.188	0.176	0.148	0.952	0.929	0.945	1.13
NCI-H23	0.989	1.05	0.977	–	0.206	0.521	0.543	0.695	0.165	0.328	0.421	0.374	0.424	0.295	0.221	0.238	0.172	0.245
NCI-H322M	0.962	0.917	1.03	0.547	0.559	0.519	0.484	0.57	0.235	0.333	0.572	0.485	0.396	0.312	0.547	0.547	0.516	0.567
NCI-H522	–	–	–	–	–	–	–	–	–	–	0.599	0.533	0.484	0.433	0.659	0.573	0.49	0.621
NCI-H1299	1.01	1.14	1.07	1.2	1.02	0.791	0.816	0.874	0.427	0.162	–	–	–	–	0.972	0.904	0.855	0.857
NCI-H1563	0.777	1	0.939	0.82	0.624	0.678	0.656	0.726	0.594	0.492	–	–	–	–	–	–	–	–
NCI-H1648	–	–	–	–	–	–	–	–	–	–	0.362	0.652	0.416	0.6	0.641	–	0.523	0.667
NCI-H1703	0.346	0.327	0.323	0.228	0.218	0.229	0.207	0.278	0.214	0.187	–	–	–	–	0.514	0.576	0.41	0.388
NCI-H1792	–	–	–	–	–	0.264	0.193	0.302	0.161	0.164	–	–	–	–	0.466	0.228	0.222	0.493
NCI-H2342	0.889	1.21	1.22	0.863	0.88	–	–	–	–	–	0.53	0.524	0.51	0.445	0.409	0.427	0.367	0.456
SW 900	0.769	0.779	0.915	0.754	0.519	–	–	–	–	–	0.638	0.473	0.735	0.346	0.624	0.572	0.375	–
